Calls of active or inactive are those of the source.
Assays:
[1] = molecular target: T1, Protein RecA (Mycobacterium tuberculosis, UniProt P9WHJ3); assay: Fluorescence Cell-Free Homogeneous Dose Retest to Identify Inhibitors of RecA-Intein Splicing Activity. [Related pubchem assays (depositor defined):AID2097, AID2223, AID489010, AID492950]; format: functional
T1 sequence (P9WHJ3 whole entry): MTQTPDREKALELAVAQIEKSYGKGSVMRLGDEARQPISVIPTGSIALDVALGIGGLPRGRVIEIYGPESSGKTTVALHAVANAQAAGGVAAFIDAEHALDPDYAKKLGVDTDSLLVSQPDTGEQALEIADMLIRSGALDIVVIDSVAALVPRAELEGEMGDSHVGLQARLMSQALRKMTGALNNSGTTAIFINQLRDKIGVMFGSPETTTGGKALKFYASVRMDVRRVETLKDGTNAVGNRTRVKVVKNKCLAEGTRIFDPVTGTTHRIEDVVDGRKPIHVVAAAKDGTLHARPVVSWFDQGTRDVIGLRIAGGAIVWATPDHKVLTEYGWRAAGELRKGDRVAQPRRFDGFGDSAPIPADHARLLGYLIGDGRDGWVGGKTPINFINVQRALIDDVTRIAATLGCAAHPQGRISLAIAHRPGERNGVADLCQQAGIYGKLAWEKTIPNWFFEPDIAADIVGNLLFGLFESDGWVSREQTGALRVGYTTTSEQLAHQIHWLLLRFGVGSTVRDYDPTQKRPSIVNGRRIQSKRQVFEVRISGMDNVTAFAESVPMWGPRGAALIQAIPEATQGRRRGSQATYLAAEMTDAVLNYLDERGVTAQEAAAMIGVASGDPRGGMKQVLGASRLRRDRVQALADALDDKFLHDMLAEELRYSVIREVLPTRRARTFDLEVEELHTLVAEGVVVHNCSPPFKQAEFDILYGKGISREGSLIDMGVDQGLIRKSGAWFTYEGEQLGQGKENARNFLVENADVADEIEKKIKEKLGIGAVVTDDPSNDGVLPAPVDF

[2] = molecular target: T2, Replicative DNA helicase DnaB (Mycobacterium tuberculosis, UniProt P9WMR3); assay: DnaB intein splicing inhibitors, dose response, biochemical, cell-free fluorescence (AID 449749); format: functional
T2 sequence (P9WMR3 whole entry): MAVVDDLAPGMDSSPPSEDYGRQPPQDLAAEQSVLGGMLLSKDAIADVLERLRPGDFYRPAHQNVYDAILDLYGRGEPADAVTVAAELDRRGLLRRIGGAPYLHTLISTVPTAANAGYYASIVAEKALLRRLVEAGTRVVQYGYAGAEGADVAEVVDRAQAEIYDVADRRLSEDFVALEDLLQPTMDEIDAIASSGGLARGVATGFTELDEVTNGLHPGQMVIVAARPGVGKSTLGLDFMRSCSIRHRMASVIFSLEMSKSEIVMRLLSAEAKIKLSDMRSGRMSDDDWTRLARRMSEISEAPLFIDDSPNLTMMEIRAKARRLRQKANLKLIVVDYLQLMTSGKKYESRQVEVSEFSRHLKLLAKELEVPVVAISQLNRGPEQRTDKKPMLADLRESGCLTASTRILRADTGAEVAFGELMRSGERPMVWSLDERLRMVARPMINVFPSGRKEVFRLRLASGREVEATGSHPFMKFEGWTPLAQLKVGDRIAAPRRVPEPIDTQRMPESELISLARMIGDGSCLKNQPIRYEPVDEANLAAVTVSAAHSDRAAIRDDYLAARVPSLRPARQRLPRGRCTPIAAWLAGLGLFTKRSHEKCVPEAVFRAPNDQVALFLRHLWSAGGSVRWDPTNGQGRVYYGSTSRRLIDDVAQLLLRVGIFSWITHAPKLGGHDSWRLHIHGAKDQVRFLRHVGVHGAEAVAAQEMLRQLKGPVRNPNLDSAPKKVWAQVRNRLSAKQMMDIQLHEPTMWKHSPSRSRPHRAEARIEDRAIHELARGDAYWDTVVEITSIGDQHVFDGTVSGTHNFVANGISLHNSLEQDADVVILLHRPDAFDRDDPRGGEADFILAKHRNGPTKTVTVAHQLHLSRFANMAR

[3] = molecular target: T3, Protein skinhead-1 (Caenorhabditis elegans, UniProt P34707); format: functional
T3 sequence (P34707 whole entry): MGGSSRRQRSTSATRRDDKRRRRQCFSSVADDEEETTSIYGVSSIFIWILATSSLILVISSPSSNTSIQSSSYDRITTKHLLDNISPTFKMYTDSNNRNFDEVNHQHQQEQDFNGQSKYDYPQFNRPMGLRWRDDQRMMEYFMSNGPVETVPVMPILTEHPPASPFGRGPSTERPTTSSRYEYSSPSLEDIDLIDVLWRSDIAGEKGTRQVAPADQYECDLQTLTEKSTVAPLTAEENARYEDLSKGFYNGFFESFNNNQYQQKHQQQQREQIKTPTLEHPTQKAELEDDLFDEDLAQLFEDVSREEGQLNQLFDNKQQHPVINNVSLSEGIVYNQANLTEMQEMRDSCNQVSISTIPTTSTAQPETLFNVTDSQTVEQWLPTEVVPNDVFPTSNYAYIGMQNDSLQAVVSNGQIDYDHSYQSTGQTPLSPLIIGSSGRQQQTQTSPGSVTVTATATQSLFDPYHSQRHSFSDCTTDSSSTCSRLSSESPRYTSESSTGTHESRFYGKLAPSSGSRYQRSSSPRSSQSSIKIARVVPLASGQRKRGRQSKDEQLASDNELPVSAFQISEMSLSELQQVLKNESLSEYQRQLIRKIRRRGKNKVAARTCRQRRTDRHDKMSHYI

[4] = test system: BJ; assay: BJ-TERT fibroblast viability loss – cell-based, RAS-independent, luminescence, dose response (AID 1933); format: functional; details: Homo sapiens
[5] = DRD fibroblast viability loss – cell-based, non-viral oncogenic, luminescence, dose response (AID 1934); format: functional; details: Homo sapiens
[6] = test system: BJ; assay: BJ-TERT-LT-ST fibroblast viability loss – cell-based, RAS-independent, luminescence, dose response (AID 1935); format: functional; details: Homo sapiens;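 also: BJ fibroblasts immortalized with TERT plus LT and ST oncogenes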
[7] = test system: BJ; assay: cells; format: functional, cell-based; details: Homo sapiens
[8] = microbe, parasite or virus in culture; format: functional; details: Mycobacterium tuberculosis
[9] = molecular target: T4, Calpain-2 catalytic subunit (Sus scrofa, UniProt P43367); assay: m-calpain protease blockers, concentration series – biochemical, fluorogenic peptide substrate, dose response (AID 1420); format: functional
T4 sequence (P43367 whole entry): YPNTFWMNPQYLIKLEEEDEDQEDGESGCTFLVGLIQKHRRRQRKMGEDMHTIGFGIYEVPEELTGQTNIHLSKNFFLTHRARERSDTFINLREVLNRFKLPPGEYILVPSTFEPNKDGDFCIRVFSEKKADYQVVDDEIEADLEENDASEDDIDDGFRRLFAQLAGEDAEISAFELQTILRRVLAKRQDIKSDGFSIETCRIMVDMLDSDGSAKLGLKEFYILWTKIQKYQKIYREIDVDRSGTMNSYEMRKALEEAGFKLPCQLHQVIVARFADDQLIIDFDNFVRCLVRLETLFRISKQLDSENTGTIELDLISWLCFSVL

[10] = NIH3T3 cell viability loss – ATP luminescence, mouse fibroblasts, counter-screen, dose response (AID 2010); format: functional, cell-based;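 also: cells exposed to compound for about 90 hours before reading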
[11] = Trypanosoma cruzi growth suppression in host cells – NIH3T3 host cells, beta-gal luminescence, confirmation (AID 2044); format: functional, cell-based;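 also: intracellular parasites grown in NIH/3T3 mouse fibroblasts as host cells; luminescent beta-galactosidase reporter signal from transgenic T. cruzi replicating inside host cells; inhibitors lower the luminescence signal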
[12] = Luminescence Cell-Based Dose Retest to Confirm Inhibitors of Cancer Stem Cells. [Related pubchem assays (depositor defined):AID2717, AID2721]; format: functional; details: Homo sapiens
[13] = molecular target: T5, Leucine aminopeptidase (Plasmodium falciparum 3D7, UniProt Q8IL11); assay: P. falciparum M17LAP inhibitors, primary screen, biochemical, fluorogenic H-Leu-NHMec substrate, 1536-well (AID 1619); format: functional
T5 sequence (Q8IL11 whole entry): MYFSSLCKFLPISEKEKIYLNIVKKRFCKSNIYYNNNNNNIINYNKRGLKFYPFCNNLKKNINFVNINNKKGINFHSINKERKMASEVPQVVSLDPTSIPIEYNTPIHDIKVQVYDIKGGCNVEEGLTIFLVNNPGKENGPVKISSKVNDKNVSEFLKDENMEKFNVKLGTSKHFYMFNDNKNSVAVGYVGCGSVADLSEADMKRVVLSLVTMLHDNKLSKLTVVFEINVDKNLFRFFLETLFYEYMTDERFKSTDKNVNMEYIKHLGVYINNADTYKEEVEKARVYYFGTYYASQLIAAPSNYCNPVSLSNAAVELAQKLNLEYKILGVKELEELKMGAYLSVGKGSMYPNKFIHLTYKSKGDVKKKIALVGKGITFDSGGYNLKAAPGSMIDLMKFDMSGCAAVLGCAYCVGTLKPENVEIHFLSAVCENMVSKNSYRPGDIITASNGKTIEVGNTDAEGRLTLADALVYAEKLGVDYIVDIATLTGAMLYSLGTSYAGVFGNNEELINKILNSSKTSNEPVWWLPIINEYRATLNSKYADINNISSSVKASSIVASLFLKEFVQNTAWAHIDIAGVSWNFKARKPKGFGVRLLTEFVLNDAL

[14] = HIV-1 AD8 envelope cell-cell fusion blockers – cherry-pick, dose response (AID 652062); format: functional, cell-based;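 also: luciferase signal from cell-cell fusion driven by HIV-1 clade B AD8 Env; potency is for inhibitors of fusion seen as a drop in luminescence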
[15] = blockers of HIV-1 ZM109 envelope-driven cell-cell fusion – HeLa effector, CEM target cells, luciferase, cherry-pick, dose response (AID 652058); format: functional, cell-based;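 also: luciferase signal from HIV-1 Env mediated cell-cell fusion of effector and target cells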
[16] = blockers of HIV-1 envelope-mediated cell-cell fusion – cherry-pick, dose response (AID 652057); format: functional, cell-based
[17] = P. falciparum Dd2 growth inhibitors, dose response, SYBR Green, cherry-picked samples (AID 1159567); format: functional, cell-based

For `Oc1ccc(O)c(Cc2nc3ccccc3s2)c1`, the EC50 [1] was > 380 µM (inactive) and the AC50 [2] was 33.1 µM (active).

With `O=C(CSc1nnnn1C1CCCCC1)Nc1cccc(NC(=O)c2ccco2)c1` the IC50 [3] was > 100 µM (inactive).

For `CN(Cc1ccc(Cl)s1)C(=O)CCl`, the EC50 [4] was 5.73 µM (active), the EC50 [1] was 8.93 µM (active) and the EC50 [5] was 27.6 µM (active). For the same compound, the EC50 [6] was > 150 µM (inconclusive), the AC50 [2] was 50.5 µM (active) and the EC50 [7] was > 150 µM (inconclusive). The CC50 [8] was 11.7 µM (active).

For `CC(C)CCN(C(=O)Nc1ccccc1)C(C)c1cccs1` (centres undefined), the IC50 [9] was 20.3 µM (not active).

With `CCN=C(S)N(CCc1c(C)[nH]c2ccc(Cl)cc12)Cc1ccco1` the IC50 [9] was 9.05 µM (not active), the EC50 [10] was > 60 µM (not active) and the EC50 [11] was 2.81 µM (active).

For `CCCC(=O)Nc1ccccc1NC(=O)CCC`, the IC50 [9] was > 50 µM (not active).

In the case of `O=C(/C=C/Nc1ccc(F)c(F)c1)c1cccs1`, the IC50 [3] is reported as 18.2 µM (active).

In the case of `CN(CC(=O)Nc1nc2ccccc2s1)S(=O)(=O)c1ccc(Cl)cc1`, the IC50 [3] is reported as > 100 µM (inactive).

For `O=C(Nc1ccc(Cl)c(Cl)c1)Nc1ccccc1NS(=O)(=O)c1cccs1`, the EC50 [1] was 29.1 µM (active), the AC50 [12] was 7.6 µM (active) and the AC50 [2] was 4.19 µM (active).

With `Cc1ccc(Nc2nc(-c3cccs3)cs2)nc1` the IC50 [3] was 54.6 µM (inactive).

For `N#CC1=C(N)Oc2[nH]nc(-c3ccc(F)cc3)c2C1c1cccnc1` (centres undefined), the IC50 [13] was 61.2 µM (active), the EC50 [1] was 1.63 µM (active) and the AC50 [2] was 7.8 µM (active).

For `CN(C(=O)c1ccco1)c1nc(-c2ccccc2)cs1`, the IC50 [3] was 100 µM (inactive).

For `Cc1cccc(N2CCN(C(=O)CN3C(=O)C4CC=CCC4C3=O)CC2)c1C` (centres undefined), the IC50 [9] was > 50 µM (not active).

In the case of `Cc1ccccc1-n1c(SCC(=O)O)nc2sc3c(c2c1=O)CCCC3`, the IC50 [3] is reported as > 100 µM (inactive).

For `C/C(=N\NC(=S)NC1CCCCC1)c1ccc(OC(F)F)cc1OC(F)F`, the IC50 [9] was 3.12 µM (not active).

With `C[C@H]1CN([C@@H](C)CO)C(=O)c2ccccc2-c2ccccc2CO[C@@H]1CN(C)C(=O)CCC(F)(F)F` the AC50 [14] was 2.55 µM (active), the AC50 [15] was 1.48 µM (active) and the AC50 [16] was 1.1 µM (active).

For `COc1ccccc1NC(=O)N[C@H]1C=C[C@@H](CC(=O)N[C@H](C)c2ccccc2)O[C@H]1CO`, the AC50 [14] was 11 µM (active), the AC50 [15] was 3.38 µM (active) and the AC50 [16] was 4.72 µM (active).

In the case of `CCSc1ncc(/C=N/Nc2ccccc2)n1C`, the IC50 [3] is reported as > 100 µM (inactive).

With `CCC(=O)N1C[C@H](C)[C@H](OC)CN(C)C(=O)c2cc(NC(=O)Nc3cccc(F)c3)ccc2OC[C@@H]1C` the AC50 [17] was 9.89 µM (active).

With `O=C(C[C@H]1C[C@H]2c3cc(NC(=O)Nc4ccccc4)ccc3O[C@H]2[C@@H](CO)O1)NC1CCCC1` the AC50 [17] was 6.1 µM (active).

With `O=C(C[C@@H]1CC[C@@H]2[C@H](COC[C@@H](O)CN2C(=O)c2ccccc2F)O1)NCc1ccc(-c2ccccc2)cc1` the AC50 [17] was 6.33 µM (active).

In the case of `COc1cccc(S(=O)(=O)N(C)C[C@@H]2Oc3ncc(C#Cc4ccc(C(F)(F)F)cc4)cc3C(=O)N([C@H](C)CO)C[C@@H]2C)c1`, the AC50 [17] is reported as 4.11 µM (active).

Reference: ChEMBL document CHEMBL1201862, “PubChem BioAssay data set” (2004)
